Laboratory results reported in PubChem BioAssay (NCI).
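48-hour exposure; five concentrations; linearly interpolated endpoints. TGI marks complete inhibition of growth.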

What was measured:
Experiment in all cases: NCI anticancer screen, dose series, 48 h
[1] = system: 786-0 renal
[2] = system: A498 renal
[3] = system: A549 NSCLC
[4] = system: ACHN renal
[5] = system: BT-549 breast
[6] = system: CAKI-1 renal
[7] = system: CCRF-CEM leukemia
[8] = system: COLO 205 colon
[9] = system: DU-145 prostate
[10] = system: EKVX NSCLC
[11] = system: HCC-2998 colon
[12] = system: HCT-116 colon
[13] = system: HCT-15 colon
[14] = system: HL-60(TB) leukemia
[15] = system: HOP-62 NSCLC
[16] = system: HOP-92 NSCLC
[17] = system: HS 578T breast
[18] = system: HT29 colon
[19] = system: IGROV1 ovarian
[20] = system: K-562 leukemia
[21] = system: KM12 colon
[22] = system: LOX IMVI melanoma
[23] = system: M14 melanoma
[24] = system: MALME-3M melanoma
[25] = system: MCF7 breast
[26] = system: MDA-MB-231 breast
[27] = system: MDA-MB-435
[28] = system: MDA-N
[29] = system: MOLT-4 leukemia
[30] = system: NCI-H226 lung
[31] = system: NCI-H23 lung
[32] = system: NCI-H460 lung
[33] = system: NCI-H522 lung
[34] = system: NCI/ADR-RES ovarian
[35] = system: OVCAR-3 ovarian
[36] = system: OVCAR-4 ovarian
[37] = system: OVCAR-5 ovarian
[38] = system: OVCAR-8 ovarian
[39] = system: PC-3 prostate
[40] = system: RPMI-8226 leukemia
[41] = system: RXF 393 renal
[42] = system: SF-268 CNS
[43] = system: SF-295 CNS
[44] = system: SF-539 CNS
[45] = system: SK-MEL-2 melanoma
[46] = system: SK-MEL-28 melanoma
[47] = system: SK-MEL-5 melanoma
[48] = system: SK-OV-3 ovarian
[49] = system: SN12C renal
[50] = system: SNB-19 CNS
[51] = system: SNB-75 CNS
[52] = system: SR leukemia
[53] = system: SW-620 colon
[54] = system: T-47D breast
[55] = system: TK-10 renal
[56] = system: U251 CNS
[57] = system: UACC-257 melanoma
[58] = system: UACC-62 melanoma
[59] = system: UO-31 renal
[60] = system: DLD-1 colon
[61] = system: DMS 114 small cell lung
[62] = system: DMS 273 small cell lung
[63] = system: KM20L2 colon
[64] = system: LXFL 529 NSCLC
[65] = system: M19-MEL melanoma
[66] = system: SNB-78 CNS

Structure (SMILES): Cc1c(-c2ccccc2)c(-c2ccc(OCCN(C)C)cc2)n2ccccc12
- TGI [1]: 20.9 µM
- TGI [2]: 29.1 µM
- TGI [3]: 29 µM
- TGI [4]: 27.8 µM
- TGI [5]: 18.7 µM
- TGI [6]: 23.9 µM
- TGI [7]: 15.5 µM
- TGI [8]: 3.08 µM
- TGI [9]: 26.3 µM
- TGI [10]: 31.8 µM
- TGI [11]: 3.27 µM
- TGI [12]: 19 µM
- TGI [13]: 8.06 µM
- TGI [14]: 19.4 µM
- TGI [15]: 28.6 µM
- TGI [16]: 24.6 µM
- TGI [17]: 20.9 µM
- TGI [18]: 3.46 µM
- TGI [19]: 23.8 µM
- TGI [20]: 4.14 µM
- TGI [21]: 15.1 µM
- TGI [22]: 5.81 µM
- TGI [23]: 3.45 µM
- TGI [24]: 17.3 µM
- TGI [25]: 23.7 µM
- TGI [26]: 23.6 µM
- TGI [27]: 11.4 µM
- TGI [28]: 14.3 µM
- TGI [29]: 15.8 µM
- TGI [30]: 30.9 µM
- TGI [31]: 32 µM
- TGI [32]: 7.3 µM
- TGI [33]: 24 µM
- TGI [34]: 27.5 µM
- TGI [35]: 26.1 µM
- TGI [36]: 26.1 µM
- TGI [37]: 28.8 µM
- TGI [38]: 28.5 µM
- TGI [39]: 20.3 µM
- TGI [40]: 6.96 µM
- TGI [41]: 25.7 µM
- TGI [42]: 34.2 µM
- TGI [43]: 26.7 µM
- TGI [44]: 24.8 µM
- TGI [45]: 21.2 µM
- TGI [46]: 3.45 µM
- TGI [47]: 3.44 µM
- TGI [48]: 30.2 µM
- TGI [49]: 25.4 µM
- TGI [50]: 25.3 µM
- TGI [51]: 22.4 µM
- TGI [52]: 6.49 µM
- TGI [53]: 17.9 µM
- TGI [54]: 22.9 µM
- TGI [55]: 27.3 µM
- TGI [56]: 24.7 µM
- TGI [57]: 4.16 µM
- TGI [58]: 3.66 µM
- TGI [59]: 23.7 µM

Structure (SMILES): C/C(C=O)=C1\C(O)C[C@]1(C)C1CC(C)(C)CC1O (stereo not given in full)
- TGI [1]: > 100 µM
- TGI [2]: > 100 µM
- TGI [3]: > 100 µM
- TGI [4]: > 100 µM
- TGI [6]: > 100 µM
- TGI [7]: > 100 µM
- TGI [8]: > 100 µM
- TGI [60]: > 100 µM
- TGI [61]: > 100 µM
- TGI [62]: > 100 µM
- TGI [10]: > 100 µM
- TGI [11]: > 100 µM
- TGI [12]: > 100 µM
- TGI [14]: > 100 µM
- TGI [15]: > 100 µM
- TGI [16]: > 100 µM
- TGI [18]: > 100 µM
- TGI [20]: > 100 µM
- TGI [21]: > 100 µM
- TGI [63]: > 100 µM
- TGI [22]: > 100 µM
- TGI [64]: > 100 µM
- TGI [23]: > 100 µM
- TGI [65]: > 100 µM
- TGI [24]: > 100 µM
- TGI [29]: > 100 µM
- TGI [30]: > 100 µM
- TGI [31]: > 100 µM
- TGI [32]: > 100 µM
- TGI [33]: > 100 µM
- TGI [35]: > 100 µM
- TGI [36]: 93.9 µM
- TGI [37]: > 100 µM
- TGI [38]: > 100 µM
- TGI [40]: > 100 µM
- TGI [41]: > 100 µM
- TGI [42]: > 100 µM
- TGI [43]: > 100 µM
- TGI [44]: > 100 µM
- TGI [45]: > 100 µM
- TGI [46]: > 100 µM
- TGI [47]: > 100 µM
- TGI [49]: > 100 µM
- TGI [50]: > 100 µM
- TGI [66]: > 100 µM
- TGI [52]: > 100 µM
- TGI [53]: > 100 µM
- TGI [55]: > 100 µM
- TGI [56]: > 100 µM
- TGI [57]: > 100 µM
- TGI [59]: > 100 µM
